Measurements: the NIST ThermoML archive (doi:10.1016/j.jct.2004.12.004)

Experiment: mn = molality of the nth substance listed, in mol/kg
Conditions: 350 kPa, Liquid, Extra sensitive DSC

OC[C@H]1O[C@@](CO)(O[C@H]2O[C@H](CO)[C@@H](O)[C@H](O)[C@H]2O)[C@@H](O)[C@@H]1O [D-sucrose] + O
apparent molar heat capacity [J/K/mol]
Conditions | 278.15 K | 283.15 K | 288.15 K | 293.15 K | 298.15 K | 303.15 K | 308.15 K | 313.15 K | 318.15 K
m1 = 0.01461 | 532.5 | 567.4 | 596.7 | 622 | 642.1 | 660.7 | 679 | 695.3 | 709.1
m1 = 0.03048 | 533.5 | 567.3 | 596.6 | 621.8 | 642.9 | 662.1 | 679.1 | 695.1 | 709.4
m1 = 0.06172 | 533.8 | 568.9 | 597.7 | 622.6 | 644 | 663 | 680.3 | 696.3 | 710.4
m1 = 0.1302 | 535.7 | 569.8 | 598.1 | 622.7 | 643.9 | 663.2 | 680.3 | 696.2 | 710.3
m1 = 0.2486 | 538.6 | 572 | 599.7 | 623.7 | 644.7 | 663.8 | 680.6 | 696.3 | 710.3
m1 = 0.4969 | 544.2 | 575.9 | 602.4 | 625.6 | 646 | 664.5 | 680.9 | 696.3 | 710.1
m1 = 0.746 | 548.9 | 579.3 | 604.7 | 627.1 | 646.9 | 665.1 | 681.1 | 696.2 | 709.8
m1 = 0.9972 | 554.2 | 583.7 | 608.3 | 629.8 | 649.1 | 666.8 | 682.4 | 697.3 | 710.5
m1 = 1.489 | 560.3 | 587.9 | 611 | 631.4 | 649.6 | 666.5 | 681.8 | 696.3 | 709.1
m1 = 1.99 | 566.8 | 593.1 | 614.9 | 634.1 | 651.6 | 667.8 | 682.4 | 696.4 | 709.1
m1 = 2.99 | 577.9 | 601.8 | 621.5 | 639 | 655.2 | 670.4 | 683.9 | 697.1 | 709.1
m1 = 3.995 | 587.9 | 610 | 628.2 | 644.5 | 659.4 | 673.5 | 686.3 | 698.8 | 710.2
